Reference: patent US20260224595A1, “COMPOUNDS FOR THE TREATMENT OF MYOTONIC DYSTROPHY” (ETH ZURICH, priority 2022, published 2026)

System: targetomes of let-7, miR-1, miR-9, miR-29, miR-30, miR-107 and miR-181
Test: RNA-Seq of miRNA targetomes in DM myoblasts and myotubes
Type: cell-based, human
Procedure: As described in Example 3, total RNA was isolated from DM-patient and healthy cells, and cDNA libraries were prepared for three conditions (healthy volunteer (HV); DM; DM+Compound II) for DM1 and DM2 backgrounds. The expression levels of predicted targetomes of miRNAs let-7, miR-1, miR-9, miR-29, miR-30, miR-107 and miR-181 were then compared, using miR-122 as well as more than 2,000 transcripts that are not predicted targets of any miRNA as negative controls. Three pair-wise comparisons were performed to measure: i) how a targetome varies between healthy and diseased cells (HV versus DM), ii) how a targetome responds to treatment with the inventive compounds (DM versus DM+Compound II) and, iii) how a Compound II-treated DM-targetome compares to that of a healthy signature. For each pair-wise comparison, the third dataset was used as a reference and the fold changes were calculated for each target transcript (e.g. DM1 vs. DM1+Compound II, with fold changes calculated relative to HV).
Primary myoblasts or myotubes derived from DM1 or DM2 patient samples and non-DM healthy control individuals were cultured for 90% confluence and then treated with 120 μM Compound II for 72 h. Myoblasts were harvested by trypsinization, and separately myotubes were isolated by a minimal trypsin treatment followed by gentle centrifugation to sediments to separate them from the remaining mono-nucleated cells. Cell pellets were washed with PBS and RNA isolation was performed with Trizol® by using the Dircet-zol™ RNA MiniPrep Plus Kit (ZYMO Research, Freiburg, Germany). Library preparation was performed using the TruSeq Stranded mRNA Kit (Illumina, San Diego, CA, USA) with the TruSeq RNA Single Index Set A (Illumina) according to the recommended procedure. Quality and size distribution of the generated libraries was validated using an Agilent 2100 bioanalyzer with high-sensitivity RNA chip (Agilent) and RNA yield was measured using the Qubit […] HS Assay Kit followed by pooling of the libraries in batches of 12 and sequencing of […] pooled library on an Nextseq 500/High Output Flow Cell Cartridge using a paired end, 2×76 reads, single index protocol.
RNA-Seq reads were mapped to the human genome (build GRCh38) using STAR (Dobin et al., (2013). STAR: ultrafast universal RNA-seq aligner. Bioinformatics 29, 15-21) with gene annotations from gencode (www.gencodegenes.org; version 40). Reads mapping uniquely to exons were counted for each gene using htseq-count (Anders et al., (2015). HTSeq—a Python framework to work with high-throughput sequencing data. Bioinformatics 31, 166-169) with the parameter -s reverse and -m intersection_strict. Expression levels were quantified as TPM (transcripts per million), by dividing read counts by the total exon length for each gene, and then normalising by the sum of all values in each sample and multiplying by one million. Fold changes were calculated between the average expression levels in three conditions: DMSO-treated healthy volunteer samples (HV), DMSO-treated DM patient samples (DM), and Compound II-treated DM patient samples (DM+Compound II). Genes with an average TPM>1 were considered in each of these three conditions. For myoblasts, three samples were included for all conditions. For myotubes, three samples were included for the HV, DM1 and DM2 conditions, but two Compound II-treated samples were excluded (one DM1 and one DM2) due to a very low read count (<500000 exonic reads), resulting in […] and two DM2+Compound II myotube samples being included in the analysis. Cumulative density functions of expression changes of miRNA target genes were plotted using custom python scripts.

CC(=O)N(C)c1cccc(-c2ccc3nnc(C)n3n2)c1 [Compound II]
shift of the targetomes of the miRNAs tested versus healthy volunteers (DM1 and DM2 cells, FIGS. 5B, 5D, 6B and 6D): levels comparable to those of healthy volunteers | median suppression of the targetomes of let-7 and miRs -9, -1, -29, -30, -107, -181 (DM1 myoblasts, 120 μM, 72 h, RNA-Seq): 10-12% | CDF curves of DM1+Compound II versus HV targetome signature for miR-1, miR-9, miR-29, miR-30 and miR-107 (DM1 myoblasts, FIG. 5B): indistinguishable overlay | median suppression of the seven miRNA targetomes (DM1 myotubes, 120 μM, 72 h, RNA-Seq): 12-15% | median suppression of the seven targetomes (DM2 myoblasts, 120 μM, 72 h, RNA-Seq): 22-25% | targetome shift versus HV signature (DM2 myoblasts, FIG. 5D): overshoot | median suppression of the seven miRNA targetomes (DM2 myotubes, 120 μM, 72 h, RNA-Seq): 10-12%
